Values joined by “and” are separate entries in the source; they are usually repeats but may differ in a detail not shown here. Equal values may be shown once. Marks after values point to notes of the source that are not given here.
Tests used:
[1] = tested on: Amphetamine-induced Hyperlocomotion; test: Amphetamine-induced hyperlocomotion in the open field; type: in vivo, mice; conditions: for % DECREASE ACTIVITY REL TO VEH + AMPH / TOTAL ACTIVITY POST-AMPHETAMINE (AUC): mice, 15 min before amphetamine SC
Protocol: Drug 1 was administered 30 minutes after the animal was placed in the open field. Drug 2 was administered subcutaneously (SC) at 45 minutes after the animal was placed in the open field (15 minutes after drug 1). AUC indicates the total amount of locomotor activity after administration of drug 2. “% decrease activity” indicates the percentage decrease in total activity relative to the Vehicle+Amphetamine group. ⋄ significant difference (P<0.05) relative to Vehicle+ Amphetamine treated animals. * indicates significant difference (P ≦0.05) relative to Vehicle+Vehicle treated animals. Amphetamine- or cocaine-induced hyperactivity. Mice were placed in an open field apparatus (FlexField, San Diego Instruments, San Diego, Calif.). […] Total activity over each 5 minute bin (21 total bins) was added to establish activity curve over the 105 minute testing. For i.p. administration, the compounds are formulated in H2O with 0.5% DMSO and given in a volume of 1 ml/kg body weight by injecting into the intraperitoneal cavity. For p.o. administration, the compounds are formulated in H2O with 0.5% DMSO and given in a volume of 2 ml/kg body weight using a 25-gauge, 1.5 inch gavage needle that is slowly inserted through the esophagus into the stomach.

[2] = tested on: Cocaine-induced Hyperlocomotion; test: Cocaine-induced hyperlocomotion in the open field; type: in vivo, mice; conditions: for % DECREASE ACTIVITY (relative to Vehicle+Cocaine) / TOTAL ACTIVITY POST-COCAINE (AUC): mice, 15 min before cocaine SC
Protocol: Drug 1 was administered 30 minutes after the animal was placed in the open field. Drug 2 was administered subcutaneously (SC) at 45 minutes after the animal was placed in the open field (15 minutes after drug 1). AUC indicates the total amount of locomotor activity after administration of drug 2. “% decrease activity” indicates the percentage decrease in total activity relative to the Vehicle+Cocaine group. ⋄ indicates significant difference (P≦0.05) relative to Vehicle+Cocaine treated animals. * indicates significant difference (P≦0.05) relative to Vehicle+Vehicle treated animals. Amphetamine- or cocaine-induced hyperactivity. Mice were placed in an open field apparatus (FlexField, San Diego Instruments, San Diego, Calif.). […] Total activity over each 5 minute bin (21 total bins) was added to establish activity curve over the 105 minute testing. For i.p. administration, the compounds are formulated in H2O with 0.5% DMSO and given in a volume of 1 ml/kg body weight by injecting into the intraperitoneal cavity. For p.o. administration, the compounds are formulated in H2O with 0.5% DMSO and given in a volume of 2 ml/kg body weight using a 25-gauge, 1.5 inch gavage needle that is slowly inserted through the esophagus into the stomach.

[3] = tested on: Nigrostriatal-lesion-induced Rotational Behavior; test: Nigrostriatal-lesion-induced rotational behavior following amphetamine administration; type: in vivo, rats; conditions: for % DECREASE ROTATIONS (relative to Vehicle+Amphetamine): nigrostriatal-lesioned rats, 15 min before amphetamine SC
Protocol: Table 3, below, indicates the changes in rotational behavior in nigrostriatal-lesioned rats treated with the compound of the invention and the psychostimulant amphetamine. Drug 1 was administered 15 minutes before amphetamine, and 10 minutes post-amphetamine, the animals were placed into the rotometer for 30 or 60 minutes. “% decrease rotations” indicates the percentage decrease in total rotations relative to the Vehicle+Amphetamine group. ⋄ indicates significant difference (P≦0.05) relative to Vehicle+Amphetamine treated animals. * indicates significant difference (P+0.05) relative to Vehicle+Vehicle treated animals.
Amphetamine-induced rotational behavior. Pre-Apomorphine-screened (rotated) rats (with lesions ≧95% DA cell loss) were purchased from Charles Rivers Laboratories. Animals were given ˜4 days to acclimate prior to testing. All animals weighted 250-300 g at the beginning of the study. Animals were treated with various combinations of vehicle or the compound of the invention and amphetamine.
Vehicle or the compound of the invention was administered (p.o.) 15 minutes before amphetamine (2 mg/kg s.c.). Rotational behavior was assessed 15 minutes post-amphetamine administration and was monitored for 60 minutes using a Rotometer system from San Diego Instruments (San Diego, Calif.).
For i.p. administration, the compounds are formulated in H2O with 0.5% DMSO and given in a volume of 1 ml/kg body weight by injecting into the intraperitoneal cavity. For p.o. administration, the compounds are formulated in H2O with 0.5% DMSO and given in a volume of 2 ml/kg body weight using a 25-gauge, 1.5 inch gavage needle that is slowly inserted through the esophagus into the stomach.

[4] = drug 1 at 0.1 mg/kg PO, 0.1 mg/kg

## Cc1cccc(C(C)c2c[nH]c(=S)[nH]2)c1C (centres unmarked) [Compound of the invention, 4-(1-(2,3-dimethylphenyl)ethyl)-1H-imidazole-2(3H)-thione]
[1]; amphetamine-induced hyperactivity
  inhibition of increased locomotion associated with psychostimulant administration (in words): effectively inhibit increased locomotion
[1]; drug 1 at 0.01 mg/kg PO
  % DECREASE ACTIVITY REL TO VEH + AMPH: 32%*
  TOTAL ACTIVITY POST-AMPHETAMINE (AUC): 9093.3 ± 983.8
[1]; drug 1 at 0.03 mg/kg PO
  % DECREASE ACTIVITY REL TO VEH + AMPH: 72%^⋄
  TOTAL ACTIVITY POST-AMPHETAMINE (AUC): 3783.3 ± 214.2
[1]; [4]
  % DECREASE ACTIVITY REL TO VEH + AMPH: 63%^⋄ and 72%^⋄
  TOTAL ACTIVITY POST-AMPHETAMINE (AUC): 5036.0 ± 654.2 and 3759.1 ± 685.4
[2]; cocaine-induced hyperactivity
  inhibition of increased locomotion associated with psychostimulant administration (in words): effectively inhibit increased locomotion
[2]; drug 1 at 0.01 mg/kg PO
  % DECREASE ACTIVITY (relative to Vehicle+Cocaine): 53%^⋄
  TOTAL ACTIVITY POST-COCAINE (AUC): 4904 ± 1832.1
[2]; drug 1 at 0.03 mg/kg PO
  % DECREASE ACTIVITY (relative to Vehicle+Cocaine): 31%*
  TOTAL ACTIVITY POST-COCAINE (AUC): 7260.8 ± 1756.5
[2]; drug 1 at 0.1 mg/kg PO
  % DECREASE ACTIVITY (relative to Vehicle+Cocaine): 64%^⋄
  TOTAL ACTIVITY POST-COCAINE (AUC): 3754.3 ± 1281.9
[3]; nigrostriatal-lesioned animals
  inhibition of amphetamine-induced rotational behavior (in words): inhibit amphetamine-induced rotational behavior
[3]; drug 1 at 0.03 mg/kg PO
  % DECREASE ROTATIONS (relative to Vehicle+Amphetamine): 68%^⋄
[3]; drug 1 at 0.1 mg/kg PO
  % DECREASE ROTATIONS (relative to Vehicle+Amphetamine): 68%^⋄
[3]; drug 1 at 1 mg/kg PO
  % DECREASE ROTATIONS (relative to Vehicle+Amphetamine): 46%^⋄*

## O=C(CCCN1CCC(O)(c2ccc(Cl)cc2)CC1)c1ccc(F)cc1 [Haloperidol, reference compound]
[1]; drug 1 at 0.2 mg/kg IP
  % DECREASE ACTIVITY REL TO VEH + AMPH: 91%^⋄*
  TOTAL ACTIVITY POST-AMPHETAMINE (AUC): 1123.16 ± 280.11

From patent US20100216857A1, “METHOD OF TREATING MOTOR DISORDERS WITH 4-(1-(2,3-DIMETHYLPHENYL)ETHYL)-1H-IMIDAZOLE-2(3H)-THIONE” (priority 2007, published 2010)
